Results: patent US11760984B2, “CRISPR protein inhibitors” (THE BROAD INSTITUTE, INC., priority 2017, dated 2023)

Experiments:
[1] = target: SpCas9 (Streptococcus pyogenes serotype M1, UniProt Q99ZW2); experiment: Cas9 nuclease activity in EGFP disruption assay (U2OS.eGFP.PEST cells); format: cell-based; design: host or cells: U2OS.eGFP-PEST; conditions: 10, 15, 20 μM, 24 h
Protocol: (§1) Cas9 Nuclease activity in EGFP disruption assay. Approximately 200,000 U2OS.eGFP-PEST cells were nucleofected with 400 ng of SpCas9 (Addgene Plasmid #43861) and 40 ng of sgRNA (pFYF1320 EGFP Site #1, Addgene Plasmid #47511) expressing plasmids along with a Td-tomato-encoding plasmid using the SE Cell Line 4D-Nucleofector™ X Kit (Lonza) according to the manufacturer's protocol. Approximately 20,000 transfected cells/well in 3 replicates were plated in a 96-well plate (Corning® 3904). Cells were allowed to grow in the indicated amount of compound or DMSO for 24 h post transfection. Cells were then fixed using 4% paraformaldehyde and imaged with the HCS NuclearMask™ Blue Stain (Life Technologies) as the nuclear counter-staining agent. Imaging was performed with an IXM 137204 ImageXpress Automated High Content Microscope (Molecular Devices) at 10× magnification under three excitation channels (blue, green and red) with 9 acquiring sites per well. Images were analyzed in the MetaXpress software and data were plotted using GraphPad Prism 6. The Z′-value was calculated following the formula: […]
Cas9 Nuclease activity in EGFP disruption assay. In some embodiments, a quantitative human cell-based reporter assay that enables rapid quantitation of targeted nuclease activities is used to characterize off-target cleavage of CRISPR protein-based RNA guided endonucleases. In this assay, the activities of nucleases targeted to a single integrated EGFP reporter gene can be quantified by assessing loss of fluorescence signal in human U2OS.EGFP cells caused by inactivating frameshift insertion/deletion (indel) mutations introduced by error prone non-homologous end-joining (NHEJ) repair of nuclease-induced double-stranded breaks (DSBs).
as §1, with “Approximately” for “Cas9 Nuclease activity in EGFP disruption assay. Approximately”

[2] = target: T1, SpCas9:gRNA complex (Streptococcus pyogenes serotype M1, UniProt Q99ZW2); experiment: Bio-Layer Interferometry (BLI) of biotinylated compound with SpCas9:gRNA complex; format: binding
T1 construct: His6 (N, cleaved yes); made in house; host or cells: E. coli BL21 Star (DE3)
Protocol: Compound-Cas9 interaction in BLI. The experiments were performed in a 96-well format with 180 μL reaction volume using biotinylated compound BRD7087-Biotin and streptavidin sensors. 1 μM of the biotinylated compound was loaded onto the sensors for 180 s in 20 mM Tris buffer of pH 7.4, 100 mM KCl, 5 mM MgCl2, 1 mM DTT, 0.01% Tween®. The compound loaded sensors were then allowed to associate with the different concentration of SpCas9:gRNA complex (1-0.15 μM) for 300 s followed by dissociation in the reaction buffer. Reference sensor was loaded with compound and allowed to associate and dissociate in the reaction buffer alone. The response curves were fitted with a 2:1 stoichiometric model and a global fit steady-state analysis were performed using manufacturer inbuilt protocol. The experiment was performed in three replicates.
The competitive experiments were performed using Biotin-linker fragment. In this experiment, streptavidin sensors were pre-incubated with 10 μM of Biotin-linker before dipping into a solution of either 1 μM BRD7087-Biotin or reaction buffer alone. Sensors were then allowed to associate with different concentration of SpCas9:gRNA complex or buffer alone.
Compound-Cas9 interaction in BLL The experiments were performed in a 96-well format with 180 μL reaction volume using biotinylated compound BRD7087-Biotin and streptavidin sensors. […]

Chain of SpCas9 (Q99ZW2 whole entry): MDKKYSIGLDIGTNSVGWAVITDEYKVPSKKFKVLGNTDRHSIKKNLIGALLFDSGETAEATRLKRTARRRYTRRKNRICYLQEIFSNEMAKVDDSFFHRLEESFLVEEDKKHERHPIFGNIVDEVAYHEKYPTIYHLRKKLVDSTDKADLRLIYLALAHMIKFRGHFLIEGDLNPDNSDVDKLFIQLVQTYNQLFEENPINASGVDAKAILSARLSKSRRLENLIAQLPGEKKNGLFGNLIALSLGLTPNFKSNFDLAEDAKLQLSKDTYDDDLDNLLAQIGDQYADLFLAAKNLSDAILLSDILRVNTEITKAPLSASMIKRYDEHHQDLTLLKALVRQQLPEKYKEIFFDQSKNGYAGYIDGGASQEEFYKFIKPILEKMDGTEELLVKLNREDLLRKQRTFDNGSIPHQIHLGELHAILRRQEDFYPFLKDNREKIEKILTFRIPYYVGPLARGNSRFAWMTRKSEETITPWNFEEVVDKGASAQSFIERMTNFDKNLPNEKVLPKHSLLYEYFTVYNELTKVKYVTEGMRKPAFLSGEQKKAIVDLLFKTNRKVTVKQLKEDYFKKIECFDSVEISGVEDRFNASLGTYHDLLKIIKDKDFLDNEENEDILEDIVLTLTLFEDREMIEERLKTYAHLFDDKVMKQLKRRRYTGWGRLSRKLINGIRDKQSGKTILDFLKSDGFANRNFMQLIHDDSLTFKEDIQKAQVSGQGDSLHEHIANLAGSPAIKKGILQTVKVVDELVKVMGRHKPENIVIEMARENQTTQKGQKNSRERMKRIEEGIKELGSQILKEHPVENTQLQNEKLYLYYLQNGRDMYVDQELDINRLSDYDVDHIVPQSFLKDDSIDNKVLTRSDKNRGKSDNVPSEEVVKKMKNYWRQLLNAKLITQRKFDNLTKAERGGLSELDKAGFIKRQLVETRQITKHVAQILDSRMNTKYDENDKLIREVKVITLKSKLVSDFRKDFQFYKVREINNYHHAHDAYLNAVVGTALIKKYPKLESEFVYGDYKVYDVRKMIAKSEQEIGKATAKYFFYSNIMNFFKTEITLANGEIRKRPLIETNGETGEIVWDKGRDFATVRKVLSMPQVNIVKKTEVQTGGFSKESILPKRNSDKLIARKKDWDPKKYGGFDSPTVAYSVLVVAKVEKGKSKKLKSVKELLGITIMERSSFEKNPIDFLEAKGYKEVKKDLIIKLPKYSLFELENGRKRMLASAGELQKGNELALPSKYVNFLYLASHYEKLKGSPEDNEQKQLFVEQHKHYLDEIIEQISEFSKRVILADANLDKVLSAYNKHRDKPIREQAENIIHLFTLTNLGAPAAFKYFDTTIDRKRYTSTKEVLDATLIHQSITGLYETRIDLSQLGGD
T1 sequence (Q99ZW2 whole entry, one chain of several): as the sequence (Q99ZW2 whole entry) above

| SMILES | potency of stereoisomers in EGFP-disruption assay compared with the parent (3aR,4S,9bR) compound [1] | Kd ([2]; 1 μM BRD7087-Biotin on streptavidin sensors, SpCas9:gRNA 1-0.15 μM, read-out: dissociation constant (2:1 compound to Cas9 binding isotherm)) | BLI response signal in competitive experiment ([2]; excess (10×) of biotin to compound loading) |
| --- | --- | --- | --- |
| OC[C@H]1Nc2ccc(-c3cccc(F)c3)cc2[C@@H]2[C@H]1CCN2Cc1ccncc1 [BRD0750, ((3aS,4S,9bS)-8-(3-Fluorophenyl)-1-(pyridin-4-ylmethyl)-2,3,3a,4,5,9b-hexahydro-1H-pyrrolo[3,2-c]quinolin-4-yl)methanol] | less potent |  |  |
| OC[C@@H]1Nc2ccc(-c3cccc(F)c3)cc2[C@H]2[C@@H]1CCN2Cc1ccncc1 [BRD2161, ((3aR,4R,9bR)-8-(3-Fluorophenyl)-1-(pyridin-4-ylmethyl)-2,3,3a,4,5,9b-hexahydro-1H-pyrrolo[3,2-c]quinolin-4-yl)methanol] | less potent |  |  |
| OC[C@@H]1Nc2ccc(-c3cccc(F)c3)cc2[C@@H]2[C@H]1CCN2Cc1ccncc1 [BRD5039, ((3aS,4R,9bS)-8-(3-Fluorophenyl)-1-(pyridin-4-ylmethyl)-2,3,3a,4,5,9b-hexahydro-1H-pyrrolo[3,2-c]quinolin-4-yl)methanol] | equipotent as BRD7087 |  |  |
| O=C(CCCC[C@@H]1SC[C@@H]2NC(=O)N[C@@H]21)NCCOCCOCCOCCC(=O)Nc1cccc(-c2ccc3c(c2)[C@H]2[C@H](CCN2Cc2ccncc2)[C@@H](CO)N3)c1 [biotin-conjugate of BRD7087, N-(2-(2-(2-(3-((3-((3aR,4S,9bR)-4-(Hydroxymethyl)-1-(pyridin-4-ylmethyl)-2,3,3a,4,5,9b-hexahydro-1H-pyrrolo[3,2-c]quinolin-8-yl)phenyl)amino)-3-oxopropoxy)ethoxy)ethoxy)ethyl)-5-((3aS,4S,6aR)-2-oxohexahydro-1H-thieno[3,4-d]imidazol-4-yl)pentanamide] |  | ~160 nM | no substantial response signal |
